From patent US6506550B1, “Method of including apoptosis by reducing the level of thiamin” (Brandeis University, priority 1997, dated 2003)
“Also recorded” adds a separate entry of the source. Read-outs that look alike come from different tables or passages of the source.

Experiments:
rat glioma C6 cells = experiment: Induction of apoptosis in rat glioma C6 cells; type: cell-based; settings: for concentration active in inducing apoptosis: in vitro
advanced ovarian cancer = settings: cited from earlier work
[1] = in vivo; cited from earlier work
Walker's sarcoma = settings: rats; cited from earlier work
[2] = estimated (Woolley and White, 1943); cited from earlier work
mice = settings: cited from earlier work
[3] = room temperature; cited from earlier work
[4] = cited from earlier work
[5] = extremely high doses; cited from earlier work

CCCc1ncc(C[n+]2ccccc2C)c(N)n1 [Amprolium]
concentration active in inducing apoptosis (rat glioma C6 cells): ≥ 0.6 mM

Cc1nc(N)cc(Cl)n1 [CMP, 4-Amino-6-chloro-2-methylpyrimidine]
induction of apoptosis by Naegleria agent pretreated with CMP (rat glioma C6 cells; CMP 2.5, 5, 10 mM, 16 h 25 °C, extract diluted to 10^−5, assay day 6 (FIG. 3)): prevented the induction of apoptosis; also recorded: did not induce apoptosis

N.N.[Cl][Pt][Cl] [cisplatin]
survival (advanced ovarian cancer; intraperitoneal injection): 49 months
survival (advanced ovarian cancer; intravenous injection): 41 months

Cc1ncc(C[n+]2csc(CCO)c2C)c(=O)[nH]1 [oxythiamin]
passage of the blood-brain barrier [1]: do not pass
decrease in growth of Walker's sarcoma (Walker's sarcoma): 45%

Cc1ncc(C[n+]2cccc(CCO)c2C)c(N)n1 [pyrithiamin]
concentration active in inducing apoptosis (rat glioma C6 cells): ≥ 0.01 mM
passage of the blood-brain barrier [1]: does
molecules required to nullify one molecule of thiamin [2]: about 40 molecules

Cc1ncc(C[n+]2csc(CCO)c2C)c(N)n1 [thiamin]
excess thiamin concentration that prevented induction of apoptosis by freshly added agent (rat glioma C6 cells; Naegleria agent at dilution 10^−5, control medium 199): 0.5-2 mg per liter
time to improvement after thiamin (mice; mice that could no longer stand upright): one
time to no discernible symptoms after thiamin (mice; mouse, in vivo): ≤ 20 h
pH at which the methylene bridge is easily cleaved [3]: ≥ 9 pH
half-life in the body ([4]; in vivo): 220 to 432 h
oral amount above which thiamin is not absorbed ([4]; oral, humans, excess excreted in urine and feces): 3-10 mg per dose
blood level causing respiratory paralysis [5]: ≥ 70 mg of thiamin per liter of blood
